Results as given in the CheMixHub drug solubility set.

Experiment: xn = mol fraction of the nth substance listed, in the solute-free solvent

NC(=O)NC1NC(=O)NC1=O (stereo unspecified) + OCCO + O
solubility (g/100 g solution)
Conditions	288.15 K	293.15 K	298.15 K	303.15 K	308.15 K	313.15 K	318.15 K	323.15 K	328.15 K	333.15 K
x2 = 0.075	0.367	0.468	0.57	0.749	0.887	1.12	1.37	1.67	1.93	2.38
x2 = 0.177	0.387	0.478	0.581	0.732	0.858	1.02	1.24	1.47	1.75	2.09
x2 = 0.327	0.439	0.481	0.62	0.747	0.847	1	1.17	1.43	1.67	1.88
x2 = 0.564	0.406	0.49	0.601	0.725	0.819	0.962	1.1	1.29	1.44	1.7
x2 = 0.744	0.466	0.515	0.628	0.712	0.779	0.924	1.03	1.2	1.33	1.54

FC(F)(F)c1cccnc1Cl + CN(C)C=O + CCCCO
solubility (g/100 g solution)
Conditions	263.15 K	268.15 K	273.15 K	278.15 K	283.15 K	288.15 K	293.15 K	298.15 K	303.15 K
x2 = 0.2885	31.3	36.7	42.1	48.9	55.3	61.7	68.1	74.6	81.4
x2 = 0.4479	37.6	43.2	48.7	55.3	61.5	67.7	73.7	79.9	85.9
x2 = 0.6438	43.1	48.9	54.2	61.1	67.5	73.7	79.7	85.6	90.9
x2 = 0.8281	50.8	56.5	61.9	68.2	74	79.6	85	90.4	95.1

CC1CCC2C(C)C(OC(=O)CCC(=O)O)OC3OC4(C)CCC1C32OO4 (stereo unspecified) + CC(C)O + O
solubility (g/100 g solution)
Conditions	278.15 K	283.15 K	288.15 K	293.15 K	298.15 K	303.15 K	308.15 K	313.15 K	318.15 K
x2 = 0.03232	0.0811	0.106	0.134	0.171	0.208	0.263	0.325	0.397	0.486
x2 = 0.06978	0.226	0.289	0.358	0.447	0.536	0.663	0.804	0.965	1.16
x2 = 0.114	0.47	0.591	0.72	0.884	1.05	1.27	1.52	1.8	2.13
x2 = 0.1666	0.786	0.985	1.18	1.43	1.68	2.02	2.37	2.77	3.23
x2 = 0.2309	1.12	1.38	1.65	1.97	2.31	2.72	3.18	3.68	4.25
x2 = 0.3106	1.41	1.7	2.02	2.43	2.8	3.3	3.83	4.42	5.04
x2 = 0.4116	1.62	1.95	2.3	2.75	3.15	3.69	4.24	4.87	5.54
x2 = 0.5455	1.77	2.13	2.49	2.94	3.37	3.92	4.5	5.12	5.8
x2 = 0.7299	1.84	2.17	2.53	3	3.42	3.96	4.53	5.15	5.78

c1ccc(-c2ccc(C(c3ccccc3)n3ccnc3)cc2)cc1 (stereo unspecified) + CO + O
solubility (g/100 g solution)
Conditions	278.15 K	283.15 K	288.15 K	293.15 K	298.15 K	303.15 K	308.15 K	313.15 K	318.15 K
x2 = 0.05881	0.0843	0.114	0.153	0.198	0.236	0.32	0.418	0.51	0.631
x2 = 0.1233	0.301	0.4	0.525	0.671	0.792	1.05	1.35	1.63	1.98
x2 = 0.1942	0.641	0.845	1.1	1.39	1.74	2.21	2.78	3.35	3.94
x2 = 0.2727	0.98	1.28	1.66	2.1	2.5	3.23	4.06	4.89	5.86
x2 = 0.3599	1.23	1.68	2.17	2.73	3.35	4.17	5.19	6.23	7.39
x2 = 0.4576	1.42	1.87	2.41	3.07	3.72	4.76	5.94	7.21	8.64
x2 = 0.5675	1.6	2.11	2.72	3.56	4.38	5.54	6.87	8.37	9.89
x2 = 0.6923	1.81	2.39	3.08	3.95	4.89	6.2	7.71	9.46	11.3
x2 = 0.835	2.04	2.8	3.67	4.72	5.88	7.29	8.87	10.8	12.9

NC(=O)NC1NC(=O)NC1=O (stereo unspecified) + O + CO
solubility (g/100 g solution)
Conditions	288.15 K	293.15 K	298.15 K	303.15 K	308.15 K	313.15 K	318.15 K	323.15 K	328.15 K	333.15 K
x2 = 0.2	0.0735	0.0876	0.104	0.134	0.155	0.188	0.219	0.264	0.299	0.353
x2 = 0.359	0.114	0.138	0.175	0.205	0.255	0.297	0.357	0.443	0.521	0.582
x2 = 0.599	0.212	0.27	0.328	0.408	0.519	0.629	0.74	0.895	1.08	1.23
x2 = 0.771	0.239	0.328	0.424	0.526	0.694	0.866	1.06	1.28	1.55	1.94
x2 = 0.9	0.319	0.389	0.506	0.642	0.836	1.05	1.29	1.53	1.86	2.27

c1ccc(-c2ccc(C(c3ccccc3)n3ccnc3)cc2)cc1 (stereo unspecified) + CC(C)O + O
solubility (g/100 g solution)
Conditions	278.15 K	283.15 K	288.15 K	293.15 K	298.15 K	303.15 K	308.15 K	313.15 K	318.15 K
x2 = 0.03225	0.0342	0.0473	0.0644	0.0851	0.103	0.142	0.189	0.234	0.294
x2 = 0.06974	0.0839	0.115	0.155	0.204	0.247	0.338	0.444	0.549	0.687
x2 = 0.1139	0.17	0.232	0.31	0.408	0.497	0.673	0.876	1.09	1.35
x2 = 0.1666	0.29	0.394	0.525	0.692	0.849	1.14	1.48	1.84	2.29
x2 = 0.2307	0.426	0.578	0.767	1.05	1.37	1.77	2.24	2.81	3.38
x2 = 0.3103	0.547	0.744	0.987	1.32	1.65	2.2	2.83	3.56	4.43
x2 = 0.4117	0.629	0.928	1.26	1.69	2.19	2.73	3.34	4.23	5.29
x2 = 0.5454	0.662	0.935	1.36	1.8	2.39	2.97	3.63	4.64	5.84
x2 = 0.7297	0.651	0.899	1.25	1.75	2.25	2.98	3.86	4.96	6.12

Cc1ncc(CO)c(CO)c1O.Cl + O + CC(C)O
solubility (g/100 g solution)
Conditions	278.15 K	283.15 K	288.15 K	293.15 K	298.15 K	303.15 K	308.15 K	313.15 K
x2 = 0.3	0.401	0.512	0.632	0.825	1.01	1.26	1.54	1.89
x2 = 0.4	0.684	0.867	1.11	1.47	1.84	2.34	2.86	3.53
x2 = 0.5	1.35	1.72	2.2	2.8	3.42	4.25	5.16	6.25
x2 = 0.6	2.56	3.18	3.92	4.83	5.89	7.02	8.34	9.79
x2 = 0.7	3.45	4.36	5.42	6.76	8.29	10.1	12	14.3
x2 = 0.8	4.83	6.11	7.62	9.29	11.3	13.4	15.8	18.8
x2 = 0.9	7.31	8.78	10.7	12.7	14.4	16.6	19.7	23.9

Cc1ncc(CO)c(CO)c1O.Cl + O + CCCO
solubility (g/100 g solution)
Conditions	278.15 K	283.15 K	288.15 K	293.15 K	298.15 K	303.15 K	308.15 K	313.15 K
x2 = 0.3	0.893	1.08	1.2	1.42	1.8	2.05	2.29	2.62
x2 = 0.4	1.59	1.9	2.23	2.65	3.25	3.59	4.15	4.99
x2 = 0.5	2.6	3.07	3.42	4.1	5	5.68	6.43	7.5
x2 = 0.6	3.83	4.45	4.91	6.02	7.03	8.29	9.47	11.3
x2 = 0.7	5.37	6.24	6.84	8.27	9.8	11.7	13.3	15.1
x2 = 0.8	6.99	8.36	9.28	10.7	12.8	15.4	17.8	19.6
x2 = 0.9	8.57	10.3	11.9	13.8	16	19	21.1	24.1
